Test results taken from PubChem BioAssay (NCI).
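Cultured in 96-well plates, cells were exposed to test compound for 48 hours across five concentrations. The concentration for full growth arrest is given as TGI.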

Experiments:
Test in all cases: NCI anticancer screen, dose series, 48 h
786-0 renal = system: 786-0 renal
A498 renal = system: A498 renal
A549 NSCLC = system: A549 NSCLC
ACHN renal = system: ACHN renal
BT-549 breast = system: BT-549 breast
CAKI-1 renal = system: CAKI-1 renal
CCRF-CEM leukemia = system: CCRF-CEM leukemia
COLO 205 colon = system: COLO 205 colon
DU-145 prostate = system: DU-145 prostate
EKVX NSCLC = system: EKVX NSCLC
HCC-2998 colon = system: HCC-2998 colon
HCT-116 colon = system: HCT-116 colon
HCT-15 colon = system: HCT-15 colon
HL-60(TB) leukemia = system: HL-60(TB) leukemia
HOP-62 NSCLC = system: HOP-62 NSCLC
HOP-92 NSCLC = system: HOP-92 NSCLC
HS 578T breast = system: HS 578T breast
HT29 colon = system: HT29 colon
IGROV1 ovarian = system: IGROV1 ovarian
K-562 leukemia = system: K-562 leukemia
KM12 colon = system: KM12 colon
LOX IMVI melanoma = system: LOX IMVI melanoma
M14 melanoma = system: M14 melanoma
MALME-3M melanoma = system: MALME-3M melanoma
MDA-MB-231 breast = system: MDA-MB-231 breast
MDA-MB-435 = system: MDA-MB-435
MDA-N = system: MDA-N
NCI-H226 lung = system: NCI-H226 lung
NCI-H23 lung = system: NCI-H23 lung
NCI-H460 lung = system: NCI-H460 lung
NCI-H522 lung = system: NCI-H522 lung
NCI/ADR-RES ovarian = system: NCI/ADR-RES ovarian
OVCAR-3 ovarian = system: OVCAR-3 ovarian
OVCAR-4 ovarian = system: OVCAR-4 ovarian
OVCAR-5 ovarian = system: OVCAR-5 ovarian
OVCAR-8 ovarian = system: OVCAR-8 ovarian
PC-3 prostate = system: PC-3 prostate
RPMI-8226 leukemia = system: RPMI-8226 leukemia
RXF 393 renal = system: RXF 393 renal
SF-295 CNS = system: SF-295 CNS
SF-539 CNS = system: SF-539 CNS
SK-MEL-2 melanoma = system: SK-MEL-2 melanoma
SK-MEL-28 melanoma = system: SK-MEL-28 melanoma
SK-MEL-5 melanoma = system: SK-MEL-5 melanoma
SK-OV-3 ovarian = system: SK-OV-3 ovarian
SN12C renal = system: SN12C renal
SNB-19 CNS = system: SNB-19 CNS
SNB-75 CNS = system: SNB-75 CNS
SR leukemia = system: SR leukemia
SW-620 colon = system: SW-620 colon
T-47D breast = system: T-47D breast
TK-10 renal = system: TK-10 renal
U251 CNS = system: U251 CNS
UACC-257 melanoma = system: UACC-257 melanoma
UACC-62 melanoma = system: UACC-62 melanoma
UO-31 renal = system: UO-31 renal
MCF7 breast = system: MCF7 breast
MOLT-4 leukemia = system: MOLT-4 leukemia
SF-268 CNS = system: SF-268 CNS

Measured: TGI

O=S(=O)(O)Nc1ccc(-c2nc3ccccc3s2)cc1Cl
not listed: MCF7 breast | MOLT-4 leukemia | SF-268 CNS
> 100 µM: all other assays above

CCOC(=O)c1c(NC(=O)c2ccccc2)sc2c1CCC2
not listed: HCC-2998 colon | HOP-92 NSCLC | LOX IMVI melanoma | MALME-3M melanoma | MDA-MB-435 | NCI-H522 lung | OVCAR-4 ovarian | SK-MEL-28 melanoma | SK-OV-3 ovarian | SW-620 colon | U251 CNS
> 100 µM: all other assays above
